Test results reported in patent publication US10287267B2, “Isoquinolin-3-yl carboxamides and preparation and use thereof” (Samumed, LLC, priority 2016, dated 2019).
Read-outs that look alike come from different tables or passages of the source.

Legend:
[1] = tested on: Wnt pathway (Sp5-Luc reporter, TCF/LEF binding sites) in SW480 colon carcinoma cells; assay: Screening assay for Wnt activity: Sp5-Luc reporter gene assay; format: cell-based, human; conditions: Homo sapiens; for EC50: Sp5-Luc reporter, SW480 cells, 36 to 48 hours; for inhibition at 10 µM: SW480, read-out: percent inhibition at 10 μM;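 as to all read-outs here: firefly luciferase luminescence read in stably transduced SW480 cells carrying the Sp5 promoter reporter with eight TCF/LEF sites, compounds given in 0.1% DMSO final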
Description: The screening assay for Wnt activity is described as follows.
Following incubation, 15 μl of BriteLite Plus luminescence reagent (Perkin Elmer) was added to each well of the 384-well assay plates. The plates were placed on an orbital shaker for 2 min and then luminescence was quantified using the Envision (Perkin Elmer) plate reader.

recombinant GSK3β kinase = recombinant GSK3β kinase (Homo sapiens (Human), UniProt P49841); assay: GSK3β kinase assay (Ser/Thr 09 peptide Z-lyte FRET); format: biochemical; conditions: 46 μM ATP, 1 h room temperature;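 also: kinase activity read as coumarin to fluorescein emission ratio, 11-point threefold dilutions from 10 µM to 0.0003 µM in duplicate, unphosphorylated and phosphorylated peptide as 0% and 100% controls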
Chain of recombinant GSK3β kinase (P49841 whole entry): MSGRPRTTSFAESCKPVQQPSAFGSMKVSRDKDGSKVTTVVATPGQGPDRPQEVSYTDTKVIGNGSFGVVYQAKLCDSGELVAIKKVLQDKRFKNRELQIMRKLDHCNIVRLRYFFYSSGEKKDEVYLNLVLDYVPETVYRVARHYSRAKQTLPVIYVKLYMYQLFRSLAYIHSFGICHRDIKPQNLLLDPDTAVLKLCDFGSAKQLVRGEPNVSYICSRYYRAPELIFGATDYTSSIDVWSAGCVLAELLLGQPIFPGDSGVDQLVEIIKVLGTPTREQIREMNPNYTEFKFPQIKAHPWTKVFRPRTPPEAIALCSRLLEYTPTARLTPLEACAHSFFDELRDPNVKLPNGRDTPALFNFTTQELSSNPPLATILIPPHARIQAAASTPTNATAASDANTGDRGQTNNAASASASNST

[2] = tested on: Tau phosphorylation at Ser396 (pSer396); assay: Tau phosphorylation assay (pSer396 ELISA / western blot) in SH-SY5Y cells; format: cell-based, human; conditions: Homo sapiens, read-out: pSer396 Tau EC50;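 also: EC50 for reduction of Tau pSer396 in lysed cells, measured by colorimetric ELISA or chemiluminescent western blot, both using the same pSer396 antibody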
Description: Two days before treatment, cells were seeded onto 96 well plates at 5×10^4 cells/well.
Wells were visually checked for cell death or change in morphology and supernatants were tested for cytotoxicity by measurement of lactate dehydrogenase release (LDH, CytoToxOne kit, Promega) if necessary.
Cells were lysed with RIPA buffer complemented with phosphatase and protease inhibitors then lysates were spun down at 12,000 g for 10 min to remove any cellular debris. Lysates are then either directly tested for pSer396 by ELISA (Life Technology, Kit KHB7031) or loaded on NuPage Bis-Tris gels for western blot analysis. Colorimetric detection of ELISA signal is performed by Cytation3 plate reader (Biotek) and the chemiluminescence signal for HRP-linked antibodies used in western blotting is detected using a Carestream Image Station. The same pSer396 antibody is used for detection of pTau in both assays.

[3] = tested on: SW480 colon carcinoma cells; assay: Cell viability assay (CellTiter-Glo); format: cell-based, human; conditions: Homo sapiens; for EC50: 96 h, SW480 cells, CellTiter-Glo, four days incubation; for inhibition at 10 µM: SW480, read-out: percent inhibition at 10 μM
IL-6 = IL-6 inhibition in LPS-stimulated human peripheral blood mononuclear cells (HTRF); format: cell-based; conditions: Homo sapiens, PBMC; for EC50: Table 9, huPBMCs, LPS 50 ng/mL, 22 hours, dose-response starting from 10 μM; for inhibition at 10 µM: read-out: percent value in parentheses beside EC50 >10 μM;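 as to all read-outs here: IL-6 detected by HTRF with an XL665- and Cryptate-labelled anti-IL-6 antibody pair, samples run in duplicate, EC50 obtained from a four-parameter Levenberg-Marquardt curve fit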
Description: After 22 hour incubation, a mixture of anti-IL6 XL665 and anti-IL-6 Cryptate diluted in reconstitution buffer (Catalog #62IL6PEC, Cisbio Inc., Bedford, Mass.) was added to each well. […] All samples were processed in duplicate. […] EC50 was determined using software generated by Dotmatics Limited (Windhill Bishops Stortford Herts, UK) using the Levenberg-Marquardt 4 parameter fitting procedure with finite different gradients.

[4] = tested on: α-smooth muscle actin (αSMA) positive LL29 cells; assay: Inhibition of fibrotic process: αSMA in TGF-β1 treated primary human fibroblasts from IPF patients; format: cell-based; conditions: Homo sapiens, Fibroblast; for EC50: 96 h, Table 8, LL29 fibroblasts from IPF patients, TGF-β1 20 ng/mL, 4 days, dose-response 10 μM to 0.94 nM; for inhibition at 10 µM: read-out: percent value in parentheses beside EC50 >10 μM;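 as to all read-outs here: controls were TGF-β1 stimulated wells with DMSO vehicle (positive) and cells given DMSO alone (negative), cultured in F12 medium with 1% fetal bovine serum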
[5] = target: recombinant DYRK1A kinase (Homo sapiens (Human), UniProt Q13627); assay: DYRK1A kinase assay (Ser/Thr 18 peptide Z-lyte FRET); format: biochemical; conditions: 30 μM ATP, 1 h room temperature;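 also: Read-out is the coumarin to fluorescein emission ratio, referenced to unphosphorylated (0%) and phosphorylated (100%) Ser/Thr 18 peptide controls, values from dose-response curves by non-linear regression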
[6] = SH-SY5Y cells, overnight (16-18 h) exposure

Row | Structure (SMILES) | EC50 [1] [nM] | EC50 (recombinant GSK3β kinase) [nM] | EC50 [2, 6] [nM] | EC50 [3] [nM] | EC50 (IL-6) [µM] | EC50 [4] [nM] | EC50 [5] [nM] | inhibition at 10 µM (IL-6) [%] | inhibition at 10 µM [4] [%] | EC50 ([2]; SH-SY5Y) [nM] | inhibition at 10 µM [1] [%] | inhibition at 10 µM [3] [%]
1 | CN1CCN(CC(=O)Nc2cc3cc(-c4cnn(C)c4)c(F)cc3cn2)CC1 [Compound 372, N-(7-Fluoro-6-(1-methyl-1H-pyrazol-4-yl)isoquinolin-3-yl)-2-(4-methylpiperazin-1-yl)acetamide] | 3400 | 79 | 1100 | 8820 | 3.66 | 504 | 10.6 | – | – | – | – | –
2 | Cc1ncc(-c2ccc3cnc(NC(=O)C4(F)CC4)cc3c2)n1C [Compound 376, N-(6-(1,2-Dimethyl-1H-imidazol-5-yl)isoquinolin-3-yl)-1-fluorocyclopropane-1-carboxamide] | 2210 | 710 | 7900 | 4200 | > 10 | > 10000 | 5.5 | 11.8 | 21 | – | – | –
3 | Cn1cc(-c2ccc3cnc(NC(=O)C4CC4)cc3c2)nn1 [Compound 433, N-(6-(1-Methyl-1H-1,2,3-triazol-4-yl)isoquinolin-3-yl) cyclopropanecarboxamide] | 191 | 1 | 32 | 615 | 0.411 | 52 | 1.9 | – | – | – | – | –
4 | Cn1cc(-c2ccc3cnc(NC(=O)C4CCC(F)(F)CC4)cc3c2)nn1 [Compound 441, 4,4-Difluoro-N-(6-(1-methyl-1H-1,2,3-triazol-4-yl)isoquinolin-3-yl) cyclohexane-1-carboxamide] | 1210 | 5 | 73 | 5270 | 3.35 | 57 | 9.1 | – | – | – | – | –
5 | Cn1cc(-c2ccc3cnc(NC(=O)[C@H]4CC[C@H](N(C)C)CC4)cc3c2)nn1 [Compound 443, trans-4-(Dimethylamino)-N-(6-(1-methyl-1H-1,2,3-triazol-4-yl)isoquinolin-3-yl)cyclohexane-1-carboxamide] | 397 | 13 | 289 | 1680 | 3.29 | 371 | 2.2 | – | – | – | – | –
6 | CN1CCN(C[C@H]2CC[C@H](C(=O)Nc3cc4cc(-c5cn(C)nn5)ccc4cn3)CC2)CC1 [Compound 448, trans-N-(6-(1-Methyl-1H-1,2,3-triazol-4-yl)isoquinolin-3-yl)-4-((4-methylpiperazin-1-yl)methyl)cyclohexane-1-carboxamide] | 289 | 11 | 106 | 626 | 2.19 | 59 | 1.2 | – | – | – | – | –
7 | Cn1cc(-c2ccc3cnc(NC(=O)C4CCNCC4)cc3c2)nn1 [Compound 452, N-(6-(1-Methyl-1H-1,2,3-triazol-4-yl)isoquinolin-3-yl)piperidine-4-carboxamide] | 787 | 7 | 912 | 1450 | 2.97 | 220 | 0.4 | – | – | – | – | –
8 | Cn1cc(-c2ccc3cnc(NC(=O)C4CCN(CC5(C(F)(F)F)CC5)CC4)cc3c2)nn1 [Compound 470, N-(6-(1-Methyl-1H-1,2,3-triazol-4-yl)isoquinolin-3-yl)-1-((1-(trifluoromethyl)cyclopropyl)methyl)piperidine-4-carboxamide] | 1180 | 4 | 95 | 4190 | 3.55 | 387 | 2.7 | – | – | – | – | –
9 | Cn1cc(-c2ccc3cnc(NC(=O)C4CCN(CC5(C)COC5)CC4)cc3c2)nn1 [Compound 472, N-(6-(1-Methyl-1H-1,2,3-triazol-4-yl)isoquinolin-3-yl)-1-((3-methyloxetan-3-yl)methyl)piperidine-4-carboxamide] | 382 | 8 | 200 | 5090 | 5.41 | 243 | 3.2 | – | – | – | – | –
10 | Cn1cc(-c2ccc3cnc(NC(=O)C4CCN(C(=O)CN5CCCC5)CC4)cc3c2)nn1 [Compound 475, N-(6-(1-Methyl-1H-1,2,3-triazol-4-yl)isoquinolin-3-yl)-1-(2-(pyrrolidin-1-yl)acetyl)piperidine-4-carboxamide] | 701 | 23 | 1800 | 1060 | 2.56 | 140 | 3.2 | – | – | – | – | –
11 | CN1CCC(N2CCC(C(=O)Nc3cc4cc(-c5cn(C)nn5)ccc4cn3)CC2)CC1 [Compound 477, 1′-Methyl-N-(6-(1-methyl-1H-1,2,3-triazol-4-yl)isoquinolin-3-yl)-[1,4′-bipiperidine]-4-carboxamide] | 327 | 6 | 188 | 719 | 2.99 | 77 | 1.1 | – | – | – | – | –
12 | Cn1cc(-c2ccc3cnc(NC(=O)[C@@H]4CCCNC4)cc3c2)nn1 [Compound 481, (R)—N-(6-(1-Methyl-1H-1,2,3-triazol-4-yl)isoquinolin-3-yl)piperidine-3-carboxamide] | 1540 | 4 | 662 | 1370 | 1.14 | 1020 | 4.3 | – | – | – | – | –
13 | CC(C)CN1CCC[C@@H](C(=O)Nc2cc3cc(-c4cn(C)nn4)ccc3cn2)C1 [Compound 483, (R)-1-Isobutyl-N-(6-(1-methyl-1H-1,2,3-triazol-4-yl)isoquinolin-3-yl) piperidine-3-carboxamide] | 1870 | 45 | 611 | 7340 | 9.62 | 315 | 11.3 | – | – | – | – | –
14 | Cn1cc(-c2ccc3cnc(NC(=O)CN4CCCC4)cc3c2)nn1 [Compound 487, N-(6-(1-Methyl-1H-1,2,3-triazol-4-yl)isoquinolin-3-yl)-2-(pyrrolidin-1-yl) acetamide] | 446 | 7 | 161 | 2680 | 3.3 | 367 | 7.7 | – | – | – | – | –
15 | Cn1cc(-c2ccc3cnc(NC(=O)CN4C5CCC4CC5)cc3c2)nn1 [Compound 513, 2-(7-Azabicyclo[2.2.1]heptan-7-yl)-N-(6-(1-methyl-1H-1,2,3-triazol-4-yl)isoquinolin-3-yl)acetamide] | 6430 | 43 | – | 9060 | > 10 | 1350 | 10.4 | 14.5 | – | 864 | – | –
16 | Cn1cncc1-c1ccc2cnc(NC(=O)C(C)(C)F)cc2c1 [Compound 517, 2-Fluoro-2-methyl-N-(6-(1-methyl-1H-imidazol-5-yl)isoquinolin-3-yl) propanamide] | > 10000 | 470 | 1300 | > 10000 | 9.07 | > 10000 | 9.6 | – | 29.9 | – | 35.8 | 27.5
17 | Cn1cncc1-c1ccc2cnc(NC(=O)C3(F)CC3)cc2c1 [Compound 521, 1-Fluoro-N-(6-(1-methyl-1H-imidazol-5-yl)isoquinolin-3-yl)cyclopropane-1-carboxamide] | 1800 | 234 | 1100 | 3630 | 3.25 | 1990 | 1.6 | – | – | – | – | –
18 | CN1CC2(CC(C(=O)Nc3cc4cc(-c5cncn5C)ccc4cn3)C2)C1 [Compound 523, 2-Methyl-N-(6-(1-methyl-1H-imidazol-5-yl)isoquinolin-3-yl)-2-azaspiro[3.3] heptane-6-carboxamide] | 683 | 42 | 2200 | 447 | 0.201 | > 10000 | 2.9 | – | 32.6 | – | – | –
19 | Cn1cncc1-c1ccc2cnc(NC(=O)C3(F)CCCCC3)cc2c1 [Compound 527, 1-Fluoro-N-(6-(1-methyl-1H-imidazol-5-yl)isoquinolin-3-yl)cyclohexane-1-carboxamide] | > 10000 | 415 | 2400 | > 10000 | 9.97 | > 10000 | 9.8 | – | 37.3 | – | 23.5 | 43.6
20 | CO[C@H]1CC[C@H](C(=O)Nc2cc3cc(-c4cncn4C)ccc3cn2)CC1 [Compound 528, trans-4-Methoxy-N-(6-(1-methyl-1H-imidazol-5-yl)isoquinolin-3-yl) cyclohexane-1-carboxamide] | 1150 | 96 | 323 | 1420 | 1.79 | 103 | 0.8 | – | – | – | – | –
21 | Cn1cncc1-c1ccc2cnc(NC(=O)[C@H]3CC[C@H](CO)CC3)cc2c1 [Compound 531, trans-4-(Hydroxymethyl)-N-(6-(1-methyl-1H-imidazol-5-yl)isoquinolin-3-yl)cyclohexane-1-carboxamide] | 1060 | 50 | 146 | 989 | 0.698 | 153 | 0.9 | – | – | – | – | –
